Measured values published in PubChem BioAssay AID179 (DTP/NCI, 2004).
pEC50, pIC50: −log10 of the molar value. Calls of active or inactive are those of the source.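 Rule for the calls: active = compounds giving half or more protection of infected cells from virus-caused growth loss, again on retest; inactive = the rest.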

Test system: CEM cells HIV-1 protection, formazan growth assay
Experiment: NCI AIDS Antiviral Assay
Conditions: for pIC50: measured here: growth of uninfected CEM cells
Experimental: The ability of compounds to protect human CEM cells from HIV-1 infection is measured as a screen for new compounds capable of inhibiting the HIV virus. Five concentrations of drug were tested on uninfected and infected cells and cell growth was measured using a soluble formazan assay. […] Compounds that provided at least 50% protection were retested. Compounds that provided at least 50% protection on retest were listed as moderately active. Compounds that reproducibly provided 100% protection were listed as confirmed active. […] Note that the inability to provide protection could be due to toxicity.

| SMILES | pEC50 | pIC50 | outcome |
| --- | --- | --- | --- |
| CC1(C)OC(=O)C(C(N)=O)=C1/C=C1\OC(=O)c2ccccc21 | < 4.62 | < 4.62 | – |
| O=c1/c(=C/c2ccc(Cl)cc2)sc2nc(-c3ccccc3)nn12 | < 3.70 | < 3.70 | – |
| COc1ccc(C2OC(N)=C(C#N)C3=C2C(C)CCC3)cc1OC (centres undefined) | 3.30 | 3.20 | – |
| Cc1ccc(NC(=O)C(=O)CC(=O)C2CCOC2=O)c(C)c1 (centres undefined) | – | – | inactive |
| O=C(Nc1ccc2c(O)c(N=Nc3ccc(S(=O)(=O)O)cc3)c(S(=O)(=O)O)cc2c1)Nc1ccc2c(O)c(N=Nc3ccc(S(=O)(=O)O)cc3)c(S(=O)(=O)O)cc2c1 | 5.05 | 3.96 | – |
| NC(=S)N/N=C1\COC(C(F)(F)F)(C(F)(F)F)C1 | < 3.70 | 3.78 | – |
| CCCCCCCCCCCCCCCCOCC(CN(C)CCN(C)C)OCCCCCCCCCCCCCCCC (centres undefined) | – | – | inactive |
| NC(CCOCCP(=O)(O)O)C(=O)O (centres undefined) | < 3.70 | < 3.70 | – |
| C1CCCCC2(CCCCCCCCC3(CCC1)SCCS3)SCCS2 | < 3.70 | < 3.70 | – |
| O=C1NC(=O)C(C(=O)C(=O)Nc2ccc(Br)cc2)C(=O)N1 | < 3.72 | < 3.72 | – |
| O=C(c1ccccc1)C1N(c2ccccc2)CCN1c1ccccc1 | < 3.70 | 4.66 | – |
| O=C(NNc1ccnc2cc(Cl)ccc12)/C(=C/c1ccc2c(c1)OCO2)NC(=O)c1ccccc1 | < 4.00 | 5.07 | – |
| O=C(/C=C/c1ccsc1)c1ccsc1 | < 3.70 | 5.47 | – |
| NC(=O)c1cn(C2OC(CO)C(O)C2O)c2ncnc(N)c12 (centres undefined) | < 6.70 | 8.25 | – |
| Cc1cc2c(C(C)C)c(O)c(O)c(C=Nc3ccc(C(=O)NCC(=O)O)cc3)c2c(O)c1-c1c(C)cc2c(C(C)C)c(O)c(O)c(C=Nc3ccc(C(=O)NCC(=O)O)cc3)c2c1O | < 3.70 | 4.59 | – |
| COc1ccc(C(c2c(O)c3ccccc3oc2=O)c2c(O)c3ccccc3oc2=O)c(OC)c1 | < 3.70 | 4.07 | – |
| COc1cc2c(c([N+](=O)[O-])c1)NC(=O)C(c1ccccc1)S2 (centres undefined) | < 3.70 | 3.96 | – |

| SMILES | pEC50 | pIC50 | outcome |
| --- | --- | --- | --- |
| COc1nc(NC2OC(COC(C)=O)C(OC(C)=O)C(OC(C)=O)C2OC(C)=O)c(C(=O)CCl)c(=O)n1C (centres undefined) | – | – | inactive |
| CC(=O)OC1COC(c2ccccc2)OC1C1OC(c2ccccc2)OCC1OC(C)=O (centres undefined) | < 3.70 | < 3.70 | – |
| Cc1ccc2[nH]c3[nH]c(=S)[nH]c(=O)c3c2c1 | 4.65 | 3.79 | – |
| CCC(=O)Oc1ccc2c(=O)c(-c3ccc(OC)cc3)c(CC)oc2c1 | < 3.70 | 4.60 | – |
| O=C(N/N=C/c1cccc2ccccc12)c1cccnc1 | < 3.70 | 3.95 | – |
| CCOC(=O)C1C(c2ccc(O)c(OC)c2)c2c([nH][nH]c2=O)CC1(C)O (centres undefined) | < 3.70 | < 3.70 | – |
| Cc1cc2ncn(-c3nc4ccccc4nc3C(C#N)S(C)(=O)=O)c2cc1C (centres undefined) | < 3.19 | 4.24 | – |
| O=C(O)CCCCSCCCCC(=O)O | < 2.97 | < 2.97 | – |
| O=C(c1ccc(Cl)cc1)c1cc2c([nH]c1=O)CCCCC2 | – | – | inactive |
| CNC(=O)/C(C#N)=C(\N)N1CCCC1 | < 3.70 | < 3.70 | – |
| Cc1ccccc1NC(=O)C(=O)C(c1cnc2ccc([N+](=O)[O-])cc2n1)[N+](=O)[O-] (centres undefined) | < 3.62 | 3.90 | – |
| O=c1[nH]cnc2c1CN(c1ccccc1)C2 | < 3.63 | < 3.63 | – |
| O=C1C2=Cc3ccccc3CCN2c2ccc([N+](=O)[O-])cc21 | < 3.70 | 3.78 | – |
| CCCNC(=S)/N=C/c1c(O)c2ccccc2[nH]c1=O | < 3.70 | < 3.70 | – |
| COc1cc(C2C(C(=O)NCc3ccccc3)=C(C)NC(C)=C2C(=O)NCc2ccccc2)ccc1O | < 4.14 | 4.31 | – |
| O=C(O)C(CO)NC(=O)n1c2ccccc2c2ccccc21 (centres undefined) | < 3.08 | 3.27 | – |
| CC(C)(C)[Si](C)(C)OCC1OC(n2ccc(=O)[nH]c2=O)C(O[Si](C)(C)C(C)(C)C)C12OC2C(=O)NN (centres undefined) | < 3.70 | 5.13 | – |
